From US20160120863A1, “SLC2A TRANSPORTER INHIBITORS” (IOMET PHARMA LTD., priority 2013, published 2016)

Key:
human GLUT1 = target: T1, human GLUT1 (Homo sapiens, UniProt P11166); assay: [3H]-deoxy-D-glucose uptake assay, GLUT1; assay type: cell-based; conditions: [3H]-deoxy-D-glucose uptake in HEK293 cells stably expressing human GLUT1
T1 construct: expressed in transfected cells
T1 sequence (P11166 1-492): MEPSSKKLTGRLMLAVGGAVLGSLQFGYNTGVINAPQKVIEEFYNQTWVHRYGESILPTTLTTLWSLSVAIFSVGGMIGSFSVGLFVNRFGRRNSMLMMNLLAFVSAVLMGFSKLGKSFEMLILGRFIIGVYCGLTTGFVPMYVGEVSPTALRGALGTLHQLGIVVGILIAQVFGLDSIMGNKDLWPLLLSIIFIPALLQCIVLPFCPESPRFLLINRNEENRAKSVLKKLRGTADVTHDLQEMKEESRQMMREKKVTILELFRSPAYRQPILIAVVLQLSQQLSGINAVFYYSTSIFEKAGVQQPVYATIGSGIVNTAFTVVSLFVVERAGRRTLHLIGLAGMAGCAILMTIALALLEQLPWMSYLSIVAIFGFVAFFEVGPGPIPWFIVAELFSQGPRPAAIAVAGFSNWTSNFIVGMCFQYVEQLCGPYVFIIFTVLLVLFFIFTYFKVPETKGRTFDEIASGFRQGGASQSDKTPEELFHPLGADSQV
Procedure, shortened: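 HEK293 cells stably overexpressing human GLUT1 or GLUT2, seeded at 60,000 per well, treated with compounds in glucose-free uptake buffer for 30 min at 37 °C. [3H]-deoxy-D-glucose uptake quantified by scintillation counting after ice-cold PBS washes; IC50 determined.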

human GLUT2 = target: T2, human GLUT2 (Homo sapiens, UniProt P11168); assay: [3H]-deoxy-D-glucose uptake assay, GLUT2; assay type: cell-based; conditions: [3H]-deoxy-D-glucose uptake in HEK293 cells stably expressing human GLUT2
T2 construct: expressed in transfected cells
T2 sequence (P11168 1-524): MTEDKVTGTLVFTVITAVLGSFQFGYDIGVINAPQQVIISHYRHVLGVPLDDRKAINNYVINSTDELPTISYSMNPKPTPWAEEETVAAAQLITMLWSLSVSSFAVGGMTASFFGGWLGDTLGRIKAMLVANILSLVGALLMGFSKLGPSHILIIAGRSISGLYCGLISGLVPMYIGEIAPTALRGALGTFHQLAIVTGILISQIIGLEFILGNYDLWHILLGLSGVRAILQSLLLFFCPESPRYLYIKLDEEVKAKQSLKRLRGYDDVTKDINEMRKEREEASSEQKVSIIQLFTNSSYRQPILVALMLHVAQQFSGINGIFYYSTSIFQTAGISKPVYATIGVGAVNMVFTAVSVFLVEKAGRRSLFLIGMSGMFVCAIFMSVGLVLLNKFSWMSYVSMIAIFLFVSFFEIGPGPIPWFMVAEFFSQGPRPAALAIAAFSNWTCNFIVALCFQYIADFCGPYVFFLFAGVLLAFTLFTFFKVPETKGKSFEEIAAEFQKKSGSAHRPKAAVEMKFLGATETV
Method: HEK293 cells were engineered to stably express either human GLUT1, GLUT2, GLUt3 or GLUT4 by transfection with the pReceiver-Lv105 plasmid, containing either hGLUT1, hGLUT2, hGLUT3, or hGLUT4 gene constructs with lipofectamine 2000, hGLUT1- hGLUT2- hGLUT3- or hGLUT4-overexpressing polyclonal populations were isolated under purinomycin selective pressure (1 μg/ml) and maintained in Dulbecco's modified Eagle's medium supplemented with 1 μg/ml purinomycin+10% foetal bovine serum (FBS).
60,000 cells per well were seeded overnight into poly-D-lysine coasted 96-well plates. […] 90 μl of test compounds were added in glucose-free uptake buffer and cells were incubated at 37° C. for 30 min.
Cells were then washed twice with ice-cold PBS and 100 μl of Microscint-20 was added per well. Glucose uptake was quantified with a scintillation counter. The half maximal inhibitory concentration (IC50) (a measure of the effectiveness of the test compound in inhibiting glucose uptake) was determined.

Structure (SMILES) | GLUT1 pIC50 (human GLUT1) | GLUT2 pIC50 (human GLUT2)
COCC(=O)N1CCN(Cc2c(-c3ccc(Cl)cc3Cl)nc3ccc(-c4ncon4)cn23)CC1 [Compound 307] | +++ (pIC50 ≧ 6.00) | ++ (pIC50 5.00-5.99)
Clc1ccc(-c2nc3ccc(-c4ccccc4)cn3c2CN2CCSCC2)cc1 [Compound 352] | +− (pIC50 < 4.00) | +− (pIC50 < 4.00)
Clc1ccc(-c2nc3ccc(-c4ccccc4)cn3c2CCN2CCOCC2)cc1 [Compound 342] | +− (pIC50 < 4.00) | ++ (pIC50 5.00-5.99)
CN(c1ccc2nc(-c3ccc(Cl)cc3)c(CN3CCNC(=O)C3)n2c1)S(C)(=O)=O [Compound 325] | +++ (pIC50 ≧ 6.00) | ++ (pIC50 5.00-5.99)
CN(c1ccc2nc(-c3ccc(Cl)cc3)c(CN3CCn4ncnc4C3)n2c1)S(C)(=O)=O [Compound 324] | +++ (pIC50 ≧ 6.00) | ++ (pIC50 5.00-5.99)
N#Cc1cccc(F)c1-c1ccc2nc(-c3ccc(Cl)cc3)c(CN3CCOCC3)n2c1 [Compound 236] | +++ (pIC50 ≧ 6.00) | +++ (pIC50 ≧ 6.00)
Clc1ccc(-c2nc3cnc(C4CC4)cn3c2CN2CCn3ncnc3C2)c(Cl)c1 [Compound 323] | +++ (pIC50 ≧ 6.00) | +++ (pIC50 ≧ 6.00)
CC(=O)N1CCN(Cc2c(-c3ccc(Cl)cc3Cl)nc3ccc(-c4ncon4)cn23)CC1 [Compound 312] | +++ (pIC50 ≧ 6.00) | +++ (pIC50 ≧ 6.00)
CCCS(=O)(=O)Nc1ccc2nc(-c3ccc(Cl)cc3)c(CN3CCN(C(C)=O)CC3)n2c1 [Compound 319] | +++ (pIC50 ≧ 6.00) | ++ (pIC50 5.00-5.99)
N#Cc1ccccc1-c1cn2c(CN3CCOCC3)c(-c3ccc(Cl)cc3)nc2cn1 [Compound 269] | +++ (pIC50 ≧ 6.00) | ++ (pIC50 5.00-5.99)
CC(=O)N1CCN(Cc2c(-c3ccc(Cl)cc3Cl)nc3cnccn23)CC1 [Compound 349] | ++ (pIC50 5.00-5.99) | +− (pIC50 < 4.00)
O=C(C1COC1)N1CCN(Cc2c(-c3ccc(Cl)cc3)nc3ccc(-c4ccccc4)cn23)CC1 [Compound 171] | +++ (pIC50 ≧ 6.00) | +++ (pIC50 ≧ 6.00)
CC(=O)N1CCN(Cc2c(-c3ccc(Cl)cc3)nc3ccc(N(C)S(=O)(=O)C4CC4)cn23)CC1 [Compound 327] | +++ (pIC50 ≧ 6.00) | ++ (pIC50 5.00-5.99)
CC(C)c1cn2c(CN3CCOCC3)c(-c3ccc(Cl)cc3)nc2cn1 [Compound 217] | +++ (pIC50 ≧ 6.00) | +++ (pIC50 ≧ 6.00)
O=C1CN(Cc2c(-c3ccc(Cl)cc3Cl)nc3cnc(C4CC4)cn23)CCN1 [Compound 272] | +++ (pIC50 ≧ 6.00) | +++ (pIC50 ≧ 6.00)
N#Cc1ccccc1-c1ccc2nc(-c3ccc(Cl)cc3)c(CN3CCOCC3)n2c1 [Compound 91] | +++ (pIC50 ≧ 6.00) | +++ (pIC50 ≧ 6.00)
CC(=O)N1CCN(Cc2c(-c3ccc(Cl)cc3Cl)nc3cnc(C(C)C)cn23)CC1 [Compound 358] | +++ (pIC50 ≧ 6.00) | +++ (pIC50 ≧ 6.00)

Structure (SMILES) | GLUT1 pIC50 (human GLUT1) | GLUT2 pIC50 (human GLUT2)
O=C1CN(Cc2c(-c3ccc(Cl)cc3)nc3ccc(-c4ccccn4)cn23)CCN1 [Compound 294] | +++ (pIC50 ≧ 6.00) | +++ (pIC50 ≧ 6.00)
CS(=O)(=O)Nc1ccc2nc(-c3ccc(Cl)cc3)c(CN3CCn4ncnc4C3)n2c1 [Compound 337] | +++ (pIC50 ≧ 6.00) | ++ (pIC50 5.00-5.99)
CS(=O)(=O)Nc1ccc2nc(-c3ccc(Cl)cc3Cl)c(CN3CCNC(=O)C3)n2c1 [Compound 359] | +++ (pIC50 ≧ 6.00) | ++ (pIC50 5.00-5.99)
Clc1ccc(-c2nc3ccc(C4COC4)cn3c2CN2CCOCC2)cc1 [Compound 298] | ++ (pIC50 5.00-5.99) | +− (pIC50 < 4.00)
O=S1(=O)CCN(Cc2c(-c3ccc(Cl)cc3)nc3ccc(-c4ccccc4)cn23)CC1 [Compound 364] | ++ (pIC50 5.00-5.99) | +− (pIC50 < 4.00)
CC(=O)N1CCN(Cc2c(-c3ccc(Cl)cc3)nc3ccc(-c4ccccn4)cn23)CC1 [Compound 295] | +++ (pIC50 ≧ 6.00) | +++ (pIC50 ≧ 6.00)
CC(=O)N1CCN(Cc2c(-c3ccc(Cl)cc3)nc3ccc(S(=O)(=O)N4CCCC4)cn23)CC1 [Compound 383] | +++ (pIC50 ≧ 6.00) | ++ (pIC50 5.00-5.99)
CC(C)(O)C(=O)N1CCN(Cc2c(-c3ccc(Cl)cc3)nc3ccc(-c4ccccc4)cn23)CC1 [Compound 308] | +++ (pIC50 ≧ 6.00) | +++ (pIC50 ≧ 6.00)
Clc1ccc(-c2nc3cnc(C4CC4)cn3c2CN2CCNCC2)cc1 [Compound 348] | +− (pIC50 < 4.00) | +− (pIC50 < 4.00)
CN1CCN(Cc2c(-c3ccc(Cl)cc3)nc3ccc(-c4ccccc4)cn23)CCC1=O [Compound 232] | +++ (pIC50 ≧ 6.00) | +++ (pIC50 ≧ 6.00)
CN(c1ccc2nc(-c3ccc(Cl)cc3)c(CN3CCNCC3)n2c1)S(C)(=O)=O [Compound 304] | ++ (pIC50 5.00-5.99) | +− (pIC50 < 4.00)
COc1ccc(C(=O)N2CCN(Cc3c(-c4ccc(Cl)cc4)nc4ccc(-c5ccccc5)cn34)CC2)cc1 [Compound 126] | +++ (pIC50 ≧ 6.00) | +++ (pIC50 ≧ 6.00)
CCNS(=O)(=O)c1ccc2nc(-c3ccc(Cl)cc3)c(CN3CCN(C(C)=O)CC3)n2c1 [Compound 384] | +++ (pIC50 ≧ 6.00) | ++ (pIC50 5.00-5.99)
CC(=O)N1CCN(Cc2c(-c3ccc(Cl)cc3)nc3cnc(NS(C)(=O)=O)cn23)CC1 [Compound 331] | +− (pIC50 < 4.00) | +− (pIC50 < 4.00)
O=C(C1COC1)N1CCN(Cc2c(-c3ccc(Cl)cc3Cl)nc3ccc(-c4ncon4)cn23)CC1 [Compound 338] | +++ (pIC50 ≧ 6.00) | +++ (pIC50 ≧ 6.00)
CC(=O)N1CCN(Cc2c(-c3ccc(Cl)cc3Cl)nc3cnc(NS(C)(=O)=O)cn23)CC1 [Compound 344] | +− (pIC50 < 4.00) | +− (pIC50 < 4.00)
CCOC(=O)Cc1c(-c2ccc(Cl)cc2)nc2ccc(-c3ccccc3)cn12 [Compound 302] | +− (pIC50 < 4.00) | ++ (pIC50 5.00-5.99)
